Measured values as given in US10550100B2, “5-[3-[piperzin-1-yl]-3-oxo-propyl]-imidazolidine-2,4-dione derivatives as ADAMTS 4 and 5 inhibitors for treating E.G. osteoarthritis” (GALAPAGOS NV, priority 2016, dated 2020).
pIC50: −log10 of the molar value.

Columns and labels:
Assay type in all cases: biochemical
[1] = target: human ADAMTS-5 (Homo sapiens (Human), UniProt Q9UNA0); test: hADAMTS-5 TBIS-1 cleavage assay, Protocol 3; conditions: Protocol 3, TBIS-1 substrate, 90 min at 37° C.; read-out: hADAMTS-5 potency IC50
Protocol: The reaction is initiated by adding to the assay plate TBIS-1 (10 μL, 4.5 μM, Anaspec) in the same buffer.
Finally, the fluorescence is read on the Envision (Perkin Elmer) after an incubation of 90 min at 37° C. (Excitation 485 nm, emission 530).

[2] = target: human TACE (Homo sapiens (Human), UniProt P78536); test: hTACE 5FAM-[…]-5TAMRA cleavage assay; conditions: 5FAM-LAQAVRSSSRK-5TAMRA, 75 min at room temperature; read-out: hTACE potency IC50
Protocol: Finally, the fluorescence is read on the Envision (Perkin Elmer) after an incubation of 75 min at room temperature (Excitation 485 nm, Emission 530).

[3] = target: human MMP13 (Homo sapiens (Human), UniProt P45452); test: hMMP13 390 MMP FRET Substrate I cleavage assay, Protocol 1; conditions: Protocol 1, 390 MMP FRET Substrate I; read-out: hMMP-13 potency IC50
Protocol: The basis for the assay is the cleavage of the substrate 390 MMP FRET Substrate I (Anaspec Cat# AS-27076) by human MMP13 (Chemicon, Cat#CC068).
Human MMP13 is preactivated by incubated the enzyme in the same buffer complemented with 1 mM freshly prepared p-Aminophenylmercuric acetate (AMPA) for 1 h at 37° C.
The reaction is initiated by adding to the assay plate 390 MMP FRET Substrate I (10 μL, 2.5 μM) in the same buffer.
Finally, the fluorescence is read on the Envision (Perkin Elmer) after an incubation of 45 min at room temperature (Excitation 485 nm, Emission 530).

[4] = target: human ADAMTS6 (Homo sapiens (Human), UniProt Q9UKP5); test: hADAMTS-6 520 MMP FRET substrate XII cleavage assay; conditions: 37° C. for 2 h, read-out: hADAMTS-6 potency IC50
Description: The IC50 value for test compounds can be determined in a fluorescent based protease assay.
The basis for the assay is the cleavage of the substrate 520 MMP FRET substrate XII by human ADAMTS6.
The substrate contains sequence Arg-Pro-Lys-Pro-Tyr-Ala-Nva-Trp-Met-Lys (SEQ ID NO: 7) with attached a fluorescent probe and a quencher. Without ADAMTS6, the emission of the probe is quenched. If the substrate is cleaved by ADAMTS6, the emission of the probe is not quenched anymore. Inhibition of ADAMTS6 activity, will result in a decrease of the signal.
To perform the assay, 4 μL of a dilution series of compound in water, starting from 20 μM highest concentration, 1/5 dilution, is added to the wells. 2 ng ADAMTS6 enzyme is diluted in 25 mM Tris pH8.0, 0.05% CHAPS, 2.5 mM CaCl2 in a total volume of 26 μL (final concentration 0.73 nM). The reaction is started by addition of 10 μL of 1 μM 520 MMP FRET Substrate XII (final concentration, diluted in same buffer as described above) and the mixture is incubated at 37° C. for 2 h. […] After this incubation, cleavage of the substrate is measured using the Envision (Perkin Elmer, exc485/em530).

Chain of human ADAMTS6 (Q9UKP5 other isoform, or with tags, fused parts or gaps): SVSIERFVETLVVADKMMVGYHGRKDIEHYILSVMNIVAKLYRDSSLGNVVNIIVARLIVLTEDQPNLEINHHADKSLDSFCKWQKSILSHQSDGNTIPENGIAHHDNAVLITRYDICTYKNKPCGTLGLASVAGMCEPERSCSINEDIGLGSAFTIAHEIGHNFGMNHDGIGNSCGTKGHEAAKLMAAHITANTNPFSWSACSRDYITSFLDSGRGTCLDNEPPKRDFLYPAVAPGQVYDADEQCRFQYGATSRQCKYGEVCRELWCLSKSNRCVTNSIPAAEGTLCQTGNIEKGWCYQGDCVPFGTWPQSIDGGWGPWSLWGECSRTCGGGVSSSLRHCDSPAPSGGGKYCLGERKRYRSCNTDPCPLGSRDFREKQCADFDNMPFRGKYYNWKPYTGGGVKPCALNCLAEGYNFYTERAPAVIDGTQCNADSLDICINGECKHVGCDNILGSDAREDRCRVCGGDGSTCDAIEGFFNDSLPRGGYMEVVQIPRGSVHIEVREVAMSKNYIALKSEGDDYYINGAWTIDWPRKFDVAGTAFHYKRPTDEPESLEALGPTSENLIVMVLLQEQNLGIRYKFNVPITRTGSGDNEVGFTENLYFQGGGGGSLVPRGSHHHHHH
Chain of human ADAMTS-5 (Q9UNA0 262-930): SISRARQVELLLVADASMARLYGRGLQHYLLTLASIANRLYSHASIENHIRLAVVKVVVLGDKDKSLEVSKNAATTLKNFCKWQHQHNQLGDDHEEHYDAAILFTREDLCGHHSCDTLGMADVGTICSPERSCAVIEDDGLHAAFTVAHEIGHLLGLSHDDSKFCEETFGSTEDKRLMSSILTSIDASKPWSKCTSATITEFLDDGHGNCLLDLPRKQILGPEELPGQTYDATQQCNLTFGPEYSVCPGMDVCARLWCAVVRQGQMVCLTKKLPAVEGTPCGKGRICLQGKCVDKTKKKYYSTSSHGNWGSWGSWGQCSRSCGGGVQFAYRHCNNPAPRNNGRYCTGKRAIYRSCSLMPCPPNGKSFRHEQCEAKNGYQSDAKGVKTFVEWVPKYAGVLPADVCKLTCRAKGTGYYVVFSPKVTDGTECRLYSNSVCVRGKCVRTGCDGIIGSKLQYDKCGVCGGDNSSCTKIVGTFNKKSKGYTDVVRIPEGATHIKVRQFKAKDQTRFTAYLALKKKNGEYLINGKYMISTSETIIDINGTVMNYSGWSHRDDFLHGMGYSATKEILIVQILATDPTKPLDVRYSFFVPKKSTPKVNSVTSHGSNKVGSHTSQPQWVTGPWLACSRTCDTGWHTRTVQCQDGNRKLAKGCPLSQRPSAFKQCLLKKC
Chain of human TACE (P78536 215-671): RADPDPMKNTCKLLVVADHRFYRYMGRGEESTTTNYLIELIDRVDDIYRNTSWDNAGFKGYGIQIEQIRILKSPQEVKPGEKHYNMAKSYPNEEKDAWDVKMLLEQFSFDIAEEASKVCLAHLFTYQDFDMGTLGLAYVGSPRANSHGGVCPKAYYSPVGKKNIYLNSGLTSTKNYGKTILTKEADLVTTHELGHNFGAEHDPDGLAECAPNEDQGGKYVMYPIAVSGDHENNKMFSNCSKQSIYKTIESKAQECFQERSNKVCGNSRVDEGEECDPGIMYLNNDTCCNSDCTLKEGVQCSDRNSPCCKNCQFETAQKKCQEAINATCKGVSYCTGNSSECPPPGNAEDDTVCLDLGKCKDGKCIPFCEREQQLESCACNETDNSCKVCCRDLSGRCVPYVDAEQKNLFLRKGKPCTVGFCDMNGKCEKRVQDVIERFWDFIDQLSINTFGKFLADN

SMILES | pIC50 [1] | pIC50 [2] | pIC50 [3] | pIC50 [4]
Cc1c(Cl)cc(Cl)cc1C1CCN(C(=O)CCC2(C)NC(=O)NC2=O)CC1 (centres unmarked) [Cpd 49, 5-(3-(4-(3,5-dichloro-2-methylphenyl)piperidin-1-yl)-3-oxopropyl)-5-methyl-imidazolidine-2,4-dione] | < 7.00 | < 7.00 | < 7.00 | 7.30 to 7.60
COc1ccc(Cl)cc1C1CCN(C(=O)CCC2(C)NC(=O)NC2=O)CC1 (centres unmarked) [Cpd 41, 5-(3-(4-(5-chloro-2-methoxy-phenyl)piperidin-1-yl)-3-oxopropyl)-5-methyl-imidazolidine-2,4-dione] | < 7.00 |  | < 7.00 | 
COc1cc(OC)cc(C2CCN(C(=O)CC[C@H]3NC(=O)NC3=O)CC2)c1 [Cpd 34, (R)-5-(3-(4-(3,5-dimethoxy-phenyl)piperidin-1-yl)-3-oxopropyl) imidazolidine-2,4-dione] | < 7.00 | < 7.00 | < 7.00 | 7.00 to 7.30
COc1cc(C2CCN(C(=O)CC[C@H]3NC(=O)NC3=O)CC2)c(C)cc1Cl [Cpd 33, (R)-5-(3-(4-(4-chloro-5-methoxy-2-methylphenyl)piperidin-1-yl)-3-oxopropyl) imidazolidine-2,4-dione] | < 7.00 | < 7.00 | < 7.00 | 7.30 to 7.60
COc1cc(C2CCN(C(=O)CC[C@H]3NC(=O)NC3=O)CC2)cc(F)c1F [Cpd 43, (R)-5-(3-(4-(3,4-difluoro-5-methoxy-phenyl)piperidin-1-yl)-3-oxopropyl) imidazolidine-2,4-dione] | < 7.00 | < 7.00 | < 7.00 | 7.30 to 7.60
COc1cc(C2CCN(C(=O)CCC3(C)NC(=O)NC3=O)CC2)ccc1Cl (centres unmarked) [Cpd 36, 5-(3-(4-(4-chloro-3-methoxyl-phenyl)piperidin-1-yl)-3-oxopropyl)-5-methyl-imidazolidine-2,4-dione] |  | < 7.00 | < 7.00 | 7.60 to 12.00

Now from value to compound:

pIC50 [1] | pIC50 [2] | pIC50 [3] | pIC50 [4] | SMILES
< 7.00 | < 7.00 | < 7.00 | 7.30 to 7.60 | COc1cc(C2CCN(C(=O)CC[C@H]3NC(=O)NC3=O)CC2)ccc1Cl [Cpd 32, (R)-5-(3-(4-(4-chloro-3-methoxyphenyl)piperidin-1-yl)-3-oxopropyl) imidazolidine-2,4-dione]
< 7.00 | < 7.00 | < 7.00 | 7.60 to 12.00 | COc1cc(C2CCN(C(=O)CCC3(C)NC(=O)NC3=O)CC2)cc(F)c1F (centres unmarked) [Cpd 45, 5-(3-(4-(3,4-difluoro-5-methoxyphenyl)piperidin-1-yl)-3-oxopropyl)-5-methyl-imidazolidine-2,4-dione]
 | < 7.00 | < 7.00 | 7.60 to 12.00 | COc1cc(C2CCN(C(=O)CCC3(C)NC(=O)NC3=O)CC2)cc(F)c1Cl (centres unmarked) [Cpd 47, 5-(3-(4-(4-chloro-3-fluoro-5-methoxyphenyl)piperidin-1-yl)-3-oxopropyl)-5-methyl-imidazolidine-2,4-dione]
< 7.00 | < 7.00 | < 7.00 | 7.30 to 7.60 | COc1cc(OC)cc(C2CCN(C(=O)CCC3(C)NC(=O)NC3=O)CC2)c1 (centres unmarked) [Cpd 38, 5-(3-(4-(3,5-dimethoxy-phenyl)piperidin-1-yl)-3-oxopropyl)-5-methyl-imidazolidine-2,4-dione]
< 7.00 | < 7.00 | < 7.00 | 7.00 to 7.30 | COc1cc(F)cc(C2CCN(C(=O)CCC3(C)NC(=O)NC3=O)CC2)c1 (centres unmarked) [Cpd 50, 5-(3-(4-(3-fluoro-5-methoxyphenyl)piperidin-1-yl)-3-oxopropyl)-5-methyl-imidazolidine-2,4-dione]
7.00 to 7.30 | < 7.00 | < 7.00 | 7.60 to 12.00 | COc1cc(C2CCN(C(=O)CC[C@H]3NC(=O)NC3=O)CC2)cc(F)c1Cl [Cpd 46, (R)-5-(3-(4-(4-chloro-3-fluoro-5-methoxyphenyl)piperidin-1-yl)-3-oxopropyl) imidazolidine-2,4-dione]
